17 compounds from US20220313835A1, “AMINOQUINOLINE COMPOUNDS, IMMUNOCONJUGATES, AND USES THEREOF” (BOLT BIOTHERAPEUTICS, INC., priority 2019, published 2022) can be followed below.

In one assay the target is T1, human TLR8 (Homo sapiens, UniProt Q9NR97).
T1 construct: host or cells: HEK293 NF-kB reporter cells
T1 sequence (Q9NR97 27-1041): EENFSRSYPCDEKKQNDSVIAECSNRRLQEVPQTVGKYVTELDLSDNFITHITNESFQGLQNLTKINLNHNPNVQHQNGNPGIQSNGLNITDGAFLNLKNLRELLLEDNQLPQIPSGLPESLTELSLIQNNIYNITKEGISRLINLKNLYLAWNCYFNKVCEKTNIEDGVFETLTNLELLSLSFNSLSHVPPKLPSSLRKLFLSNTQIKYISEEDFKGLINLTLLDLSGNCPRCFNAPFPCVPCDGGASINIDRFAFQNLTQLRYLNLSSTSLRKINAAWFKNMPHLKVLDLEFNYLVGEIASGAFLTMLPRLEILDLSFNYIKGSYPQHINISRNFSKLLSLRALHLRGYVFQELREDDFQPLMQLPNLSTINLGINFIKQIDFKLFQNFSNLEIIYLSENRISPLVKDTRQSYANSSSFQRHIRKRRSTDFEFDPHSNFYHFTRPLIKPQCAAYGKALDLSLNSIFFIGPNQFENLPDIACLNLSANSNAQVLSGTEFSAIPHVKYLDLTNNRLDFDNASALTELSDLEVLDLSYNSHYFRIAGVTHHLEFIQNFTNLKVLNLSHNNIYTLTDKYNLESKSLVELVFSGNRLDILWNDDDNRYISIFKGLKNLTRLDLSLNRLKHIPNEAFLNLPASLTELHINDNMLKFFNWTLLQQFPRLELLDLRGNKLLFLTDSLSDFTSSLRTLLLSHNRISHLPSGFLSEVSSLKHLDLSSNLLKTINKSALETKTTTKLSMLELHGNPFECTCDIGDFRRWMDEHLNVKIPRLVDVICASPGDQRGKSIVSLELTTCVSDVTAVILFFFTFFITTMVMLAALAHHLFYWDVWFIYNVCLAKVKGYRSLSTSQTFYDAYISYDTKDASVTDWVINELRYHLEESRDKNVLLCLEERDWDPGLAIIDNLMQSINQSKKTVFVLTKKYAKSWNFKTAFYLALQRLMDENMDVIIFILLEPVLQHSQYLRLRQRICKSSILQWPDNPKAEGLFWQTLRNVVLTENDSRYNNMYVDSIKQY
As to the kind of experiment: HEK Reporter Assay, HEK293 NFKB reporter cells expressing human TLR8. Type of assay: cell-based. Particulars: read-out: HEK-293 hTLR8 EC50. The procedure: (§1) Each compound was characterized by mass spectrometry and shown to have the mass indicated. Activity against HEK293 NFKB reporter cells expressing human TLR7 or human TLR8 was measured according to Example 31.
(§2) HEK293 reporter cells expressing human TLR7 or human TLR8 were purchased from Invivogen and vendor protocols were followed for cellular propagation and experimentation. Briefly, cells were grown to 80-85% confluence at 5% CO2 in DMEM supplemented with 10% FBS, Zeocin, and Blasticidin. Cells were then seeded in 96-well flat plates at 4×10^4 cells/well with substrate containing HEK detection medium and immunostimulatory molecules. Activity was measured using a plate reader at 620-655 nm wavelength.

Another assay addresses T2, human TLR7 (Homo sapiens, UniProt Q9NYK1).
T2 construct: host or cells: HEK293 NF-kB reporter cells
T2 sequence (Q9NYK1 27-1049): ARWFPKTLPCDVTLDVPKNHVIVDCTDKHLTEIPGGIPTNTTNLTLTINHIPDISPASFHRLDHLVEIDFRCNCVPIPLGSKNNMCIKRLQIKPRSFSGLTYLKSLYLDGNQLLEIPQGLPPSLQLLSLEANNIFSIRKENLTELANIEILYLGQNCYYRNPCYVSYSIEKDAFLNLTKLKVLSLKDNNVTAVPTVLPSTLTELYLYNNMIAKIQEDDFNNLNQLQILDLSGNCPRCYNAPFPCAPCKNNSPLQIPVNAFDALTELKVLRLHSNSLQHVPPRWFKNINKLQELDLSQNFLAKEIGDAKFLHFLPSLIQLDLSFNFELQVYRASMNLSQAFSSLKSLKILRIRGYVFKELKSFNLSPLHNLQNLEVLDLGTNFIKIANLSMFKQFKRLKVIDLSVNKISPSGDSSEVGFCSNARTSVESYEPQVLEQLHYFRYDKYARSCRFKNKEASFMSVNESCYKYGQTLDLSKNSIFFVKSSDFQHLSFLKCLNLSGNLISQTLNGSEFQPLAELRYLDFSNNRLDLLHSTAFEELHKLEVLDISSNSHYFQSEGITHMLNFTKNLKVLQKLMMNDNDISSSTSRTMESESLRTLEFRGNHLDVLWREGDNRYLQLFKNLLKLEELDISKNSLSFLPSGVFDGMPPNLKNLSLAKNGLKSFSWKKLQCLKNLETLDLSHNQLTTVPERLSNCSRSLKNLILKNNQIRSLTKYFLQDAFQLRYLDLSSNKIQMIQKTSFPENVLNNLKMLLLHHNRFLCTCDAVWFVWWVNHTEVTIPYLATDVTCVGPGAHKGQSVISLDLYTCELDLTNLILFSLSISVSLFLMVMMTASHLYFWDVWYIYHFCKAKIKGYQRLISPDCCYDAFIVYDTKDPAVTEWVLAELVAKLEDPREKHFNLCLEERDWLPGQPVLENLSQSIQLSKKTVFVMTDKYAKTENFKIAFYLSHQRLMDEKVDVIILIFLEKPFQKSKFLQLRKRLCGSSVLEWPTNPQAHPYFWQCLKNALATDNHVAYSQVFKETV
Put plainly: HEK Reporter Assay, HEK293 NFKB reporter cells expressing human TLR7. Type of assay: cell-based. Particulars: read-out: HEK-293 hTLR7 EC50. The procedure: as §1, §2
(In general: Reporter assays use an easily measured gene product as a stand-in for the process of interest.)

By EC50 is commonly meant the concentration needed to bring the measured effect to its halfway point. With `CCCCCc1cc2c(CCCCCNC(C)=O)cccc2nc1N` [AQ-1, N-(5-(2-amino-3-pentylquinolin-5-yl)pentyl)acetamide], the EC50 is > 9 µM at human TLR8 and 0.252 µM on human TLR7.

With `CCCCCc1cc2c(CCCCCNC(=O)Nc3cccc(C#N)c3)cccc2nc1N` [AQ-2, 1-(5-(2-amino-3-pentylquinolin-5-yl)pentyl)-3-(3-cyanophenyl)urea], the EC50 on human TLR8 and at human TLR7 was > 9 µM in each case.

Turning to `CCCCCc1cc2c(CCCCCNC(=O)OC(C)(C)C)cccc2nc1N` [AQ-3, tert-butyl (5-(2-amino-3-pentylquinolin-5-yl)pentyl)carbamate], the EC50 at human TLR8 and on human TLR7 was > 9 µM each time.

For the compound `CCCCCc1cc2c(CCCCCNC=O)cccc2nc1N` [AQ-4, N-(5-(2-amino-3-pentylquinolin-5-yl)pentyl)formamide], the EC50 on human TLR8 and on human TLR7 was > 9 µM throughout.

For `CCCCCc1cc2ccc(-c3cccc(S(=O)(=O)N4CC(CO)C4)c3)cc2nc1N` [AQ-5, (1-((3-(2-amino-3-pentylquinolin-7-yl)phenyl)sulfonyl)azetidin-3-yl)methanol], the EC50 on human TLR8 was 0.562 µM; at human TLR7 it was > 9 µM.

For `CCCN(CCC)C(=O)c1cc2ccccc2nc1N` [AQ-6, 2-amino-N,N-dipropylquinoline-3-carboxamide], the EC50 at human TLR8 and at human TLR7 was > 9 µM throughout.

For the compound `CCCN(CCC)C(=O)c1cc2c(CCCCCN)cccc2nc1N` [AQ-7, 2-amino-5-(5-aminopentyl)-N,N-dipropylquinoline-3-carboxamide], the EC50 at human TLR8 and at human TLR7 was > 9 µM throughout.

As to `CCCCCc1cc2c(CCCCCN(C)C)cccc2nc1N` [AQ-8, 5-(5-(dimethylamino)pentyl)-3-pentylquinolin-2-amine], the EC50 was 1.02 µM on human TLR8 and > 9 µM at human TLR7.

Consider `CCCCCc1cc2ccc(C(=O)Nc3ccc(N4CCC(C(=O)NCCNC(=O)OC(C)(C)C)CC4)nc3)cc2nc1N` [AQ-10, tert-butyl N-[2-[[1-[5-[(2-amino-3-pentyl-quinoline-7-carbonyl)amino]-2-pyridyl]piperidine-4-carbonyl]amino]ethyl]carbamate], for which the half-maximal effective concentration (EC50) at human TLR8 and at human TLR7 was > 9 µM in each case.

Take `CCCCCc1cc2ccc(-c3cccc(S(=O)(=O)N4CC(CNC(=O)OC(C)(C)C)C4)c3)cc2nc1N` [AQ-11, tert-butylN-[[1-[3-(2-amino-3-pentyl-7-quinolyl)phenyl]sulfonylazetidin-3-yl]methyl] carbamate]: the EC50 at human TLR8 and on human TLR7 was > 9 µM each time.

For the compound `CCCCCc1cc2ccc(-c3cccc(S(=O)(=O)N4CC(CN)C4)c3)cc2nc1N` [AQ-12, 7-[3-[3-(aminomethyl)azetidin-1-yl]sulfonylphenyl]-3-pentyl-quinolin-2-amine], the EC50 was 1.48 µM at human TLR8 and > 9 µM on human TLR7.

With `CCCCCc1cc2c(CCCCCN)cc(-c3cccc(S(=O)(=O)N4CC(CO)C4)c3)cc2nc1N` [AQ-13, [1-[3-[2-amino-5-(5-aminopentyl)-3-pentyl-7-quinolyl]phenyl]sulfonylazetidin-3-yl]methanol], the EC50 at human TLR8 and on human TLR7 was > 9 µM in each case.

Regarding `CCCCCc1cc2ccc(C(=O)Nc3ccc(N4CCC(C(=O)NCCN)CC4)nc3)cc2nc1N` [AQ-14, 2-amino-N-(6-(4-((2-aminoethyl)carbamoyl)piperidin-1-yl)pyridin-3-yl)-3-pentylquinoline-7-carboxamide], the EC50 at human TLR8 and at human TLR7 was > 9 µM each time.

For `CCCCCc1cc2c(CC3CCCN3C)cc(-c3cccc(S(=O)(=O)N4CC(CO)C4)c3)cc2nc1N` (stereo not shown) [AQ-15, [1-[3-[2-amino-5-[(1-methylpyrrolidin-2-yl)methyl]-3-pentyl-7-quinolyl]phenyl]sulfonylazetidin-3-yl]methanol], the values for the EC50 at human TLR8 and at human TLR7 were 2.45 µM and > 9 µM, respectively.

Consider `CCCCCc1cc2c(C#CCCCNC(=O)OC(C)(C)C)cc(-c3cccc(S(=O)(=O)N4CC(CO)C4)c3)cc2nc1N` [AQ-16, tert-butyl N-[5-[2-amino-7-[3-[3-(hydroxymethyl)azetidin-1-yl]sulfonylphenyl]-3-pentyl-5-quinolyl]pent-4-ynyl]carbamate], for which the EC50 on human TLR8 and on human TLR7 was > 9 µM each time.

Regarding `CCCCCc1cc2ccc(-c3cccc(S(=O)(=O)N4CC(CN/C(=N\CCOC)Nc5cccc(C#N)c5)C4)c3)cc2nc1N` [AQ-17, 1-((1-((3-(2-amino-3-pentylquinolin-7-yl)phenyl)sulfonyl)azetidin-3-yl)methyl)-3-(3-cyanophenyl)-2-(2-methoxyethyl)guanidine], the EC50 on human TLR8 and on human TLR7 was > 9 µM throughout.

Turning to `CCCCCc1cc2c(CCCCCN/C(=N\c3cccc(C#N)c3)NCCOC)cccc2nc1N` [AQ-18, 1-(5-(2-amino-3-pentylquinolin-5-yl)pentyl)-3-(3-cyanophenyl)-2-(2-methoxyethyl)guanidine], the EC50 on human TLR8 and at human TLR7 was > 9 µM in each case.
